Key:
Type in all cases: in vivo
[1] = system: Probasin precursor (lipocalin family member); assay: 2-DE proteome analysis of rat hippocampus: Probasin precursor; settings: rat hippocampus cytosolic extract, 10 mg/kg i.p. daily 14 days, vs control; gel spot 70
Protocol: (§1) Animal dosing. Adult male Sprague Dawley rats weighing 230-320 g were housed with ad libitum access to food and water. After 1 week of habituation, rats were administered either an antidepressant or vehicle alone. The following drugs were administered intraperitoneally (i.p.): fluoxetine (10 mg/kg daily), venlafaxine (10 mg/kg daily) or vehicle alone (1 ml/kg normal saline daily) for 14 days (n=3 rats per group).
(§2) Sample preparation and cytosolic protein extraction. The animals were euthanized and hippocampi were rapidly dissected from the whole brain. Samples from each treatment group were pooled and stored at −85° C. Cytosolic extracts were prepared using the universal extraction kit from Sigma (prot-two) as follows: soluble cytoplasmic extraction reagent (S2688) was added to the hippocampal tissue (10 ml/250 mg wet weight). […]
(§3) Two-dimensional gel electrophoresis. […] Molecular masses were determined by running standard protein markers (Genomic Solutions Inc.), covering the range 10-200 kDa as well as internal verification via landmark proteins within the gel. […]
(§4) Protein fixation, silver staining and 2-D gel comparisons. […] Protein spots were outlined (first automatically and then manually) and quantified using the HT analyzer v2.2 software (Genomic Solutions Inc.). The software calculated the relative spot volume of the proteins compared with the total amount of protein in the gel. […]

[2] = system: Hydroxysteroid sulfotransferase A (Androsterone-sulfating sulfotransferase); assay: 2-DE proteome analysis of rat hippocampus: Hydroxysteroid sulfotransferase A; settings: rat hippocampus cytosolic extract, 10 mg/kg i.p. daily 14 days, vs control; gel spot 79
Protocol: as §1, §2, §3, §4

[3] = system: 10 KD heat shock protein, mitochondrial (Hsp10); assay: 2-DE proteome analysis of rat hippocampus: Hsp10; settings: rat hippocampus cytosolic extract, 10 mg/kg i.p. daily 14 days, vs control; gel spot 83
Protocol: as §1, §2, §3, §4

[4] = system: Myelin Basic Protein S (MBP S); assay: 2-DE proteome analysis of rat hippocampus: MBP S; settings: rat hippocampus cytosolic extract, 10 mg/kg i.p. daily 14 days, vs control; gel spot 64
Protocol: as §1, §2, §3, §4

[5] = system: Lymphotactin [precursor] (Cytokine SCM-1; Small inducible cytokine C1); assay: 2-DE proteome analysis of rat hippocampus: Lymphotactin; settings: rat hippocampus cytosolic extract, 10 mg/kg i.p. daily 14 days, vs control; gel spot 80
Protocol: as §1, §2, §3, §4

| Structure (SMILES) | Fold change, Probasin precursor [1] | Fold change, Hydroxysteroid sulfotransferase A [2] | Fold change, 10 KD heat shock protein, mitochondrial (Hsp10) [3] | Fold change, Myelin Basic Protein S (MBP S) [4] | Fold change, Lymphotactin [precursor] [5] |
| --- | --- | --- | --- | --- | --- |
| CNCCC(Oc1ccc(C(F)(F)F)cc1)c1ccccc1 (stereo not shown) [Fluoxetine, fluoxetine] | 2.7 Fold change | 2 Fold change | 2.3 Fold change | 3.1 Fold change | 2 Fold change |
| COc1ccc(C(CN(C)C)C2(O)CCCCC2)cc1 (stereo not shown) [Venlafaxine, venlafaxine] | 2.7 Fold change | 2 Fold change | 3.8 Fold change | 3.7 Fold change | 1.9 Fold change |

Source: patent publication US20080293583A1, “Methods for diagnosing mood disorders” (Wyeth, priority 2003, published 2008)
